Test results published in publication PMC4408918 (Journal of medicinal chemistry, 2012).
Read-outs that look alike come from different tables or passages of the source.

Legend:
P. falciparum 3D7 = P. falciparum 3D7 growth inhibition; type: cell-based; conditions: Plasmodium falciparum, 3D7, 72 h, read-out: 3D7 EC50
P. falciparum K1 = P. falciparum K1 growth inhibition; type: cell-based; conditions: Plasmodium falciparum, K1, 72 h, read-out: K1 EC50
[1] = Liver microsomal stability, human; type: in vitro ADME; conditions: both, pH 7.4
[2] = In vivo pharmacokinetics, oral, female CD-1 mice; conditions: for AUC(0-inf) / CL/F: female, CD-1, mouse, po
P. berghei (NK-65) = experiment: Oral efficacy in P. berghei; conditions: 100 and 200 mg/kg oral on days 3, 4, 5
[3] = Parallel Artificial membrane Permeability Assay; type: in vitro ADME; conditions: triplicate
[4] = Liver microsomal stability, mouse; type: in vitro ADME; conditions: female, CD9, mouse, mouse liver microsomes, pH 7.4
CYP2D6 = CYP2D6 (Homo sapiens, UniProt P10635); experiment: CYP inhibition in human liver microsomes, CYP2D6; type: in vitro ADME; conditions: 20 minutes at 37 °C, two concentrations
Kir6.2/SUR2A = conditions: read-out: Kir6.2 IC50; cited from earlier work
Nav1.5 = conditions: cited from earlier work
[5] = human liver microsomes (pooled)

Chain of CYP2D6 (P10635 whole entry): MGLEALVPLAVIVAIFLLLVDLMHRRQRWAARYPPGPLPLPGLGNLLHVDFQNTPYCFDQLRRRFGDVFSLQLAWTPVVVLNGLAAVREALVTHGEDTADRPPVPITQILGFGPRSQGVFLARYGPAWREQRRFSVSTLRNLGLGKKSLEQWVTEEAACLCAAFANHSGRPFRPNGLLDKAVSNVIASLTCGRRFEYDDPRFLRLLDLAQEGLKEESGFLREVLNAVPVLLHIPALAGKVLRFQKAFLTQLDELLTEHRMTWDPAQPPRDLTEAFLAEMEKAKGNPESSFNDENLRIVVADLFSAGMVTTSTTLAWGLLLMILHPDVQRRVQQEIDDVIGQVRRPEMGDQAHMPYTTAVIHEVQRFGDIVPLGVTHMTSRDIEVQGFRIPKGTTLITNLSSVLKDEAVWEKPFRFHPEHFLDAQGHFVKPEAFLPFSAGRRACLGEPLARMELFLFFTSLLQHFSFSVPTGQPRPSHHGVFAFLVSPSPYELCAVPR

CLint scaled at 2000 µM [1, 5] [mL/min/kg]	AUC(0-inf) ([2]; plasma, 20 mg/kg) [µM·h]	CL/F ([2]; plasma, 20 mg/kg) [mL/min/kg]	AUC(0-inf) ([2]; plasma, 200 mg/kg) [µM·h]	CL/F ([2]; plasma, 200 mg/kg) [mL/min/kg]	AUC(0-inf) ([2]; plasma, 500 mg/kg) [µM·h]	CL/F ([2]; plasma, 500 mg/kg) [mL/min/kg]	Avg. Pe (PAMPA permeability) [3]	SMILES	overall in vivo efficacy (P. berghei (NK-65))	CLint scaled at 2000 µM [4] [mL/min/kg]	CYP2D6 inhibition (CYP2D6)	IC50 (Kir6.2/SUR2A) [µM]	AUC(0-inf) ([2]; in vivo, 200 mg/kg) [µM·h]	CL/F ([2]; in vivo, 200 mg/kg) [mL/min/kg]	further results
19 ± 1	1.6	421	3.75	1790			und^a	O=C(CCc1ccccc1)c1cc(F)ccc1OCC(O)CN1CCC(c2ccccc2)CC1 (stereo not shown) [Compound 5]		29 ± 2	weak CYP2D6 inhibitors				increase in Cmax with increasing dose from 20 mg/kg to 200 mg/kg ([2]; oral, female CD-1 mice): 2 fold
			6.17	920				O=C(CCc1ccccc1)c1cc(F)ccc1OCC(O)CN1CCN(C(c2ccccc2)c2ccccc2)CC1 (stereo not shown) [Compound 2]				> 5			CLint scaled at 2000 µM ([1]; microsomes): 5 ± 2 mL/min/kg
13 ± 1	0.298	1900	5.67	1000	4.08	3480	und^a	O=C(CCc1ccc(F)cc1)c1ccccc1OCC(O)CN1CCN(C(c2ccccc2)c2ccccc2)CC1 (stereo not shown) [Compound 3]		43 ± 3					

Second part, the molecule before the results:

SMILES	CLint scaled at 2000 µM [1, 5] [mL/min/kg]	AUC(0-inf) ([2]; plasma, 20 mg/kg) [µM·h]	CL/F ([2]; plasma, 20 mg/kg) [mL/min/kg]	AUC(0-inf) ([2]; plasma, 200 mg/kg) [µM·h]	CL/F ([2]; plasma, 200 mg/kg) [mL/min/kg]	AUC(0-inf) ([2]; plasma, 500 mg/kg) [µM·h]	CL/F ([2]; plasma, 500 mg/kg) [mL/min/kg]	Avg. Pe (PAMPA permeability) [3]	overall in vivo efficacy (P. berghei (NK-65))	CLint scaled at 2000 µM [4] [mL/min/kg]	CYP2D6 inhibition (CYP2D6)	IC50 (Kir6.2/SUR2A) [µM]	AUC(0-inf) ([2]; in vivo, 200 mg/kg) [µM·h]	CL/F ([2]; in vivo, 200 mg/kg) [mL/min/kg]	further results
O=C(CCc1ccccc1)c1ccccc1OCC(O)CN1CCN(C(c2ccccc2)c2ccccc2)CC1 (stereo not shown) [Compound 1]	14 ± 1	0.249	2350	3.1	1890	3.37	4340		not significantly better than that of the negative controls						EC50 (P. falciparum 3D7): 0.06 ± 0.01 µM; EC50 (P. falciparum K1): 0.1 ± 0.05 µM
Cc1ccc(N2CCN(CC(O)COc3ccccc3C(=O)CCc3ccccc3)CC2)cc1 (stereo not shown) [Compound 6]								und^a		30 ± 6		> 5	6.49	1000	IC50 (Nav1.5): > 5 µM
O=C(CCc1ccccc1)c1ccccc1OCC(O)CN1CCC(c2ccccc2)CC1 (stereo not shown) [Compound 4]	11 ± 1								some efficacy in suppressing parasitemia and life extension, but did not provide durable cures	27 ± 2	weak CYP2D6 inhibitors	> 5	6.8	1020	IC50 (Nav1.5; read-out: Nav1.5 phasic IC50, phasic): > 5 µM; IC50 (Nav1.5; read-out: Nav1.5 tonic IC50, tonic): > 5 µM; improvement in AUCinf over compound 1 ([2]; 500 mg/kg oral, female CD-1 mice): approximately 5 fold; AUC(0-inf) ([2]; in vivo, 20 mg/kg): 0.224 µM·h; CL/F ([2]; in vivo, 20 mg/kg): 3110 mL/min/kg; AUC(0-inf) ([2]; in vivo, 500 mg/kg): 15.3 µM·h; CL/F ([2]; in vivo, 500 mg/kg): 1140 mL/min/kg
